Measurements taken from patent publication US10294234B2, “HIV inhibitor compounds” (priority 2017, dated 2019).
Like-named read-outs stand apart in the source and are kept apart here.

What was measured:
[1] = Procedure, shortened: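 LC/MS/MS read-out of parent compound remaining; in vitro t1/2 converted to Clint. Incubation: 1 uM compound, 0.5 mg/mL dog/rat/human liver microsomes, NADPH-regenerating system, duplicate sets, time-points 2–65 minutes.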
[2] = tested on: HIV-1 (IIIB) in MT-4 cells; test: MT-4 HIV assay; type: cell-based; conditions: Human immunodeficiency virus 1, MT4, 120 h; HIV-1 (IIIB), MT-4 cells, 5 days, Cell Titer Glo; read-out: EC50
Procedure, shortened: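 Antiviral activity was read by Cell Titer Glo after a 5-day, 37 °C culture of MT-4 cells pre-infected with a 1:250 dilution of HIV-1 (IIIB). Compounds were tested as threefold dilution series in complete RPMI. Controls were no drug, mock infection and 5 uM AZT.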

[3] = human liver microsomes 0.5 mg/mL, 1 uM compound, NADPH
[4] = rat liver microsomes 0.5 mg/mL, 1 uM compound, NADPH

SMILES | Human Pred Cl. ([1]; human, microsomes) | Rat. Pred. Cl. ([1]; rat, microsomes) | EC50 [2] | Human Pred Cl. [1, 3] | Rat. Pred. Cl. [1, 4] | Dog. Pred. Cl. ([1]; dog, microsomes)
COC(=O)N[C@H](C(=O)N[C@@H](Cc1ccc(-c2ccn(CC(F)F)n2)cc1)[C@@H](O)CN(Cc1c(F)cc(-c2cnc(N3CC4CCC(C3)N4C3COC3)nc2)cc1F)NC(=O)[C@@H](NC(=O)OC)C(C)(C)C(F)(F)F)C(C)(C)C(F)(F)F [Example 212, Methyl ((5S,8S,9S,14S)-11-(2,6-difluoro-4-(2-(8-(oxetan-3-yl)-3,8-diazabicyclo[3.2.1]octan-3-yl)pyrimidin-5-yl)benzyl)-8-(4-(1-(2,2-difluoroethyl)-1H-pyrazol-3-yl)benzyl)-16,16,16-trifluoro-9-hydroxy-15,15-dimethyl-3,6,13-trioxo-5-(1,1,1-trifluoro-2-methylpropan-2-yl)-2-oxa-4,7,11,12-tetraazahexadecan-14-yl)carbamate] | 0.33 L/H/kg | 0.33 L/H/kg | 4.97 nM |  |  | 
CC(C)([C@H](NC(=O)C1CC1)C(=O)N[C@@H](Cc1ccc(-c2cnn(C(F)F)c2)cc1)[C@@H](O)CN(Cc1c(F)cc(-c2cnn(C(F)F)c2)cc1F)NC(=O)[C@@H](NC(=O)C1CC1)C(C)(C)C(F)(F)F)C(F)(F)F [Example 214, N—((S)-1-(2-((2S,3S)-3-((S)-2-(cyclopropanecarboxamido)-4,4,4-trifluoro-3,3-dimethylbutanamido)-4-(4-(1-(difluoromethyl)-1H-pyrazol-4-yl)phenyl)-2-hydroxybutyl)-2-(4-(1-(difluoromethyl)-1H-pyrazol-4-yl)-2,6-difluorobenzyl)hydrazinyl)-4,4,4-trifluoro-3,3-dimethyl-1-oxobutan-2-yl)cyclopropanecarboxamide] |  |  | 12.3 nM | <0.11 L/H/kg | <0.18 L/H/kg | 
COC(=O)N[C@H](C(=O)NN(Cc1c(F)cc(-c2ccn(C(F)F)n2)cc1F)C[C@H](O)[C@H](Cc1ccc(-c2cnn(C(F)F)c2)cc1)NC(=O)[C@@H](NC(=O)OC)C(C)(C)C(F)(F)F)C(C)(C)C [Example 218, Methyl ((5S,8S,9S,14S)-11-(4-(1-(difluoromethyl)-1H-pyrazol-3-yl)-2,6-difluorobenzyl)-8-(4-(1-(difluoromethyl)-H-pyrazol-4-yl)benzyl)-9-hydroxy-15,15-dimethyl-3,6,13-trioxo-5-(1,1,1-trifluoro-2-methylpropan-2-yl)-2-oxa-4,7,11,12-tetraazahexadecan-14-yl)carbamate] |  |  | 2.99 nM | 0.92 L/H/kg | 0.45 L/H/kg | 
COC(=O)N[C@H](C(=O)N[C@@H](Cc1ccc(C#Cc2cnc(N3CC4CCC(C3)N4C3COC3)nc2)cc1)[C@@H](O)CN(Cc1c(F)cc(-c2cn(C(F)F)nn2)cc1F)NC(=O)[C@@H](NC(=O)OC)C(C)(C)C(F)(F)F)C(C)(C)C(F)(F)F [Example 219, Methyl ((5S,8S,9S,14S)-11-(4-(1-(difluoromethyl)-1H-1,2,3-triazol-4-yl)-2,6-difluorobenzyl)-16,16,16-trifluoro-9-hydroxy-15,15-dimethyl-8-(4-((2-(8-(oxetan-3-yl)-3,8-diazabicyclo[3.2.1]octan-3-yl)pyrimidin-5-yl)ethynyl)benzyl)-3,6,13-trioxo-5-(1,1,1-trifluoro-2-methylpropan-2-yl)-2-oxa-4,7,11,12-tetraazahexadecan-14-yl)carbamate] | <0.11 L/H/kg | 0.24 L/H/kg | 4.1 nM |  |  | 0.19 L/H/kg
